From patent US8697739B2, “Bicyclic acetyl-CoA carboxylase inhibitors and uses thereof” (Novartis AG, priority 2010, dated 2014)

Each compound was assayed against T1, human acetyl-CoA carboxylase 2 (ACC2) (Homo sapiens, UniProt O00763) (assay: Acetyl-CoA carboxylase enzyme assay (malonyl-CoA formation by LC/MS/MS)). Settings: recombinant human ACC2 (aa 144-2458); read-out: IC50 ACC2.
T1 construct: The cDNA encoding amino acids 144 to 2458 of human acetyl-CoA carboxylase 2; made in house; host or cells: Sf9 insect cells (baculovirus, pFastBac1)
Assay type: biochemical
In short: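 Malonyl-CoA formation was read by LC/MS/MS MRM against a [13C3]-malonyl-CoA internal standard, after acetic acid quench. The enzyme was baculovirus/Sf9-expressed human ACC2 residues 144–2458, given 15 minutes room-temperature compound preincubation in HEPES pH 7.5 buffer with MgCl2, citrate and DTT. Substrate solution held 50 μM acetyl-CoA, 120 μM ATP and 2 mM KHCO3.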

T1 sequence (O00763 144-2458): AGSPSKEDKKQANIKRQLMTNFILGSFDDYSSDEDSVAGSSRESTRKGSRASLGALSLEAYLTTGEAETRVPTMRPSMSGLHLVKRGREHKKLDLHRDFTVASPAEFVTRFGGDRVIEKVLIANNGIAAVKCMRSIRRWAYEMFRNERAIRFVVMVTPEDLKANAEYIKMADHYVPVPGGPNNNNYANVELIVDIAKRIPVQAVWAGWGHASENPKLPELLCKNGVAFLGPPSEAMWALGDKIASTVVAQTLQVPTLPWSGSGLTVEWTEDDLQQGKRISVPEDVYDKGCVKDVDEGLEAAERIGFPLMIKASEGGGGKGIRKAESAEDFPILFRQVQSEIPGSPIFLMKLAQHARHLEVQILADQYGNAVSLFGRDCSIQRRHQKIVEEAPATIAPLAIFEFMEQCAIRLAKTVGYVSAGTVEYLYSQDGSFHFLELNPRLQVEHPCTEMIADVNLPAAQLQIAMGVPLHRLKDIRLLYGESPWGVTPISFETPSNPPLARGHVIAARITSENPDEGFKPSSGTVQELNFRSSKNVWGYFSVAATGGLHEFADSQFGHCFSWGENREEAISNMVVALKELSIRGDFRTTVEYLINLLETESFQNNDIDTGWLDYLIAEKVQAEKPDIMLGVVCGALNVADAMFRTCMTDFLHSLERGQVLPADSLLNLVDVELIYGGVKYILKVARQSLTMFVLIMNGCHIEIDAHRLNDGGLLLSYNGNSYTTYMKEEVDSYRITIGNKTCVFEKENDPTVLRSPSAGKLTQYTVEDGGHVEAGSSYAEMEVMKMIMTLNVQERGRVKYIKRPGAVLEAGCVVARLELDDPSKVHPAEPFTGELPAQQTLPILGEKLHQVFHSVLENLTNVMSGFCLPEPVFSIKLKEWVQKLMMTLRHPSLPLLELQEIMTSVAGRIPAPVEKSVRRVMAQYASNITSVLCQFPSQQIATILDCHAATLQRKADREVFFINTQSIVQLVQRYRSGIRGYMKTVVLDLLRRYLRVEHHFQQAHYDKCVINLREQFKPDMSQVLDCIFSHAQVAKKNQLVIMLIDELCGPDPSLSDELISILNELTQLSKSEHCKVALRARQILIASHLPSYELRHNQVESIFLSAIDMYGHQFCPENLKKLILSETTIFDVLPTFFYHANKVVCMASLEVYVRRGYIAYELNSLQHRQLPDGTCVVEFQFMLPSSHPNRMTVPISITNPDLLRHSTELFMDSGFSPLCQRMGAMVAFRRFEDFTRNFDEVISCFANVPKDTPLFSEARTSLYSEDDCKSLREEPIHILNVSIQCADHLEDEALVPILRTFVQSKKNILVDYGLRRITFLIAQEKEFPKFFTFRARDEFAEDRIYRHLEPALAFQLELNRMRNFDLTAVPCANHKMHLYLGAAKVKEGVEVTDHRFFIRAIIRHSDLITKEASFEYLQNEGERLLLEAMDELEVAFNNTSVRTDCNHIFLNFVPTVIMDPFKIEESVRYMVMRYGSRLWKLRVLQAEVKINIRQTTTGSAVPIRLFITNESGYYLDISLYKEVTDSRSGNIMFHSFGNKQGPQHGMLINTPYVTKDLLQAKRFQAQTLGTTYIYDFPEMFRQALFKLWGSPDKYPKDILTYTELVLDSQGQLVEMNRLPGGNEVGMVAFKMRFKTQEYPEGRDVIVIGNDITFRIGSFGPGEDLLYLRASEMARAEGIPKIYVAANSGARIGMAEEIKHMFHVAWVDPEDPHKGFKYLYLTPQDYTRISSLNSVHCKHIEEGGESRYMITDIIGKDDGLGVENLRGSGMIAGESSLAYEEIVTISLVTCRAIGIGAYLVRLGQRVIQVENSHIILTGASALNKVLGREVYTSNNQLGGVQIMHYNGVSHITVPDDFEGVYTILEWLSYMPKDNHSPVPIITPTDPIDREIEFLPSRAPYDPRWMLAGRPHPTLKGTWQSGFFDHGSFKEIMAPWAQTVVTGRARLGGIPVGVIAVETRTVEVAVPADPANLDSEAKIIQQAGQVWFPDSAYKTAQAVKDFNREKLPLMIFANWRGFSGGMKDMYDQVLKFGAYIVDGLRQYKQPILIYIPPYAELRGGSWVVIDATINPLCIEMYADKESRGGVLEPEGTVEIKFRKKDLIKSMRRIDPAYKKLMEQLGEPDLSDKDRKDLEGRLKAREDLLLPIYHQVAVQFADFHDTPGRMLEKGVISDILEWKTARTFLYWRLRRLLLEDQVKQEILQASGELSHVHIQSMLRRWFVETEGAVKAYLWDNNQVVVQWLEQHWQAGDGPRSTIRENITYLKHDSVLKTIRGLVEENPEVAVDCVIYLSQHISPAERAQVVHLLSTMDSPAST

Row | IC50 | SMILES
1 | 2960 nM | CC(C)[C@H]1COCCN1C(=O)[C@H]1CC[C@H](NS(=O)(=O)c2ccc3nc(N4CCN(C)CC4)ccc3c2)CC1 [Example 260, N-((1S,4r)-4-((S)-3-isopropylmorpholine-4-carbonyl)cyclohexyl)-2-(4-methylpiperazin-1-yl)quinoline-6-sulfonamide]
2 | 460 nM | Cc1cc(-c2ccc3cc(S(=O)(=O)N[C@H]4CC[C@H](C(=O)N5CCOC[C@@H]5C(C)C)CC4)ccc3n2)cc(C)n1 [Example 261, 2-(2,6-dimethylpyridin-4-yl)-N-((1S,4r)-4-((S)-3-isopropylmorpholine-4-carbonyl)cyclohexyl)quinoline-6-sulfonamide]
3 | 20 nM | C[C@@H](NC(=O)C12CC3CC(C1)C(NS(=O)(=O)c1cnc4c(c1)NCCN4)C(C3)C2)c1ccc(F)cc1 (stereo partly drawn) [Example 262, 4-(1,2,3,4-Tetrahydro-pyrido[2,3-b]pyrazine-7-sulfonylamino)-adamantane-1-carboxylic acid [(R)-1-(4-fluoro-phenyl)-ethyl]-amide]
4 | 30 nM | CC(C)(C)OC(=O)N1CCN(C(=O)[C@H]2CC[C@H](NS(=O)(=O)c3ccc4c(c3)oc3ccccc34)CC2)[C@@H](c2ccccc2)C1 [Example 263, (S)-tert-butyl 4-((1r,4S)-4-(dibenzo[b,d]furan-3-sulfonamido)cyclohexanecarbonyl)-3-phenylpiperazine-1-carboxylate]
5 | 20 nM | O=C([C@H]1CC[C@H](NS(=O)(=O)c2ccc3c(c2)oc2ccccc23)CC1)N1CCNC[C@@H]1c1ccccc1 [Example 264, N-((1S,4r)-4-((S)-2-phenylpiperazine-1-carbonyl)cyclohexyl)dibenzo[b,d]furan-3-sulfonamide]
6 | 685 nM | COC(=O)C12CC3CC(C1)C(NS(=O)(=O)c1ccc4oc5ccccc5c4c1)C(C3)C2 (stereo not shown) [Example 265, 4-(Dibenzofuran-2-sulfonylamino)-adamantane-1-carboxylic acid methyl ester]
7 | 140 nM | CCOc1ccc2cc(S(=O)(=O)N[C@H]3CC[C@H](C(=O)N[C@H](COC(=O)[C@@H](N)C(C)C)c4ccccc4)CC3)ccc2n1 [Example 266, (S)-((S)-2-((1r,4S)-4-(2-ethoxyquinoline-6-sulfonamido)cyclohexanecarboxamido)-2-phenylethyl) 2-amino-3-methylbutanoate]
8 | > 35000 nM | COC(=O)[C@H]1CC[C@H](CNS(=O)(=O)c2ccc3oc4ccccc4c3c2)CC1 [Example 267, (1r,4r)-methyl 4-((dibenzo[b,d]furan-2-sulfonamido)methyl)cyclohexanecarboxylate]
9 | 435 nM | CCOc1ccc2cc(S(=O)(=O)N[C@H]3CC[C@H](C(=O)N[C@H](COP(=O)(OC(C)(C)C)OC(C)(C)C)c4ccccc4)CC3)ccc2n1 [Example 268, di-tert-butyl (S)-2-((1r,4S)-4-(2-ethoxyquinoline-6-sulfonamido)cyclohexanecarboxamido)-2-phenylethyl phosphate]
10 | 25200 nM | CCOc1ccc2cc(S(=O)(=O)N[C@H]3CC[C@H](C(=O)N[C@H](COP(=O)(O)O)c4ccccc4)CC3)ccc2n1 [Example 269, (S)-2-((1r,4S)-4-(2-ethoxyquinoline-6-sulfonamido)cyclohexanecarboxamido)-2-phenylethyl dihydrogen phosphate]
11 | 165 nM | C[C@@H](NC(=O)C12CCC(NS(=O)(=O)c3cnc4c(c3)NCCN4)(CC1)CC2)c1ccc(F)cc1 [Example 270, (R)-N-(1-(4-fluorophenyl)ethyl)-4-(1,2,3,4-tetrahydropyrido[3,2-b]pyrazine-7-sulfonamido)bicyclo[2.2.2]octane-1-carboxamide]
12 | 195 nM | CCOc1ccc2cc(S(=O)(=O)NC3CCC(C(=O)NC(c4ccccc4)C(C)OC(=O)C(N)C(C)C)CC3)ccc2n1 [Example 271, (S)-((1S,2S)-1-((1r,4S)-1-((1r,4S)-4-(2-ethoxyquinoline-6-sulfonamido)cyclohexanecarboxamido)-1-phenylpropan-2-yl) 2-amino-3-methylbutanoate]
13 | 39 nM | CCOc1ccc2cc(S(=O)(=O)N[C@H]3CC[C@H](C(=O)N[C@H](COC(=O)[C@@H](N)Cc4ccccc4)c4ccccc4)CC3)ccc2n1 [Example 273, (S)-((S)-2-((1r,4S)-4-(2-ethoxyquinoline-6-sulfonamido)cyclohexanecarboxamido)-2-phenylethyl) 2-amino-3-phenylpropanoate]
14 | 4030 nM | O=C(N[C@@H](c1ccccc1)C(F)(F)F)[C@H]1CC[C@H](NS(=O)(=O)c2ccc3[nH]c(-c4ccccc4)nc3c2)CC1 [Example 274, (1r,4S)-4-(2-phenyl-1H-benzo[d]imidazole-5-sulfonamido)-N-((S)-2,2,2-trifluoro-1-phenylethyl)cyclohexanecarboxamide]
15 | 18 nM | COC(=O)c1ccc(-c2nc3cc(S(=O)(=O)N[C@H]4CC[C@H](C(=O)N[C@H](C)c5ccccc5)CC4)ccc3[nH]2)cc1 [Example 275, methyl 4-(5-(N-((1R,4r)-4-((R)-1-phenylethylcarbamoyl)cyclohexyl)sulfamoyl)-1H-benzo[d]imidazol-2-yl)benzoate]
16 | < 10 nM | C[C@@H](NC(=O)[C@H]1CC[C@H](NS(=O)(=O)c2ccc3[nH]c(-c4ccc(F)cc4)nc3c2)CC1)c1ccccc1 [Example 276, (1r,4R)-4-(2-(4-fluorophenyl)-1H-benzo[d]imidazole-5-sulfonamido)-N-((R)-1-phenylethyl)cyclohexanecarboxamide]
17 | 80 nM | C[C@@H](NC(=O)[C@H]1CC[C@H](NS(=O)(=O)c2ccc3[nH]c(C4CC4)nc3c2)CC1)c1ccccc1 [Example 277, (1r,4R)-4-(2-cyclopropyl-1H-benzo[d]imidazole-5-sulfonamido)-N-((R)-1-phenylethyl)cyclohexanecarboxamide]
18 | 66 nM | C[C@@H](NC(=O)[C@H]1CC[C@H](NS(=O)(=O)c2ccc3[nH]c(-c4ccc(C(=O)O)cc4)nc3c2)CC1)c1ccccc1 [Example 278, 4-(5-(N-((1R,4r)-4-((R)-1-phenylethylcarbamoyl)cyclohexyl)sulfamoyl)-1H-benzo[d]imidazol-2-yl)benzoic acid]
19 | 100 nM | C[C@@H](NC(=O)[C@H]1CC[C@H](NS(=O)(=O)c2ccc3[nH]c(-c4cccc(C(=O)O)c4)nc3c2)CC1)c1ccccc1 [Example 279, 3-(5-(N-((1R,4r)-4-((R)-1-phenylethylcarbamoyl)cyclohexyl)sulfamoyl)-1H-benzo[d]imidazol-2-yl)benzoic acid]
20 | 12 nM | C[C@@H](NC(=O)[C@H]1CC[C@H](NS(=O)(=O)c2ccc3[nH]c(-c4ccncc4)nc3c2)CC1)c1ccccc1 [Example 280, (1r,4R)-N-((R)-1-phenylethyl)-4-(2-(pyridin-4-yl)-1H-benzo[d]imidazole-5-sulfonamido)cyclohexanecarboxamide]
21 | 11 nM | C[C@@H](NC(=O)[C@H]1CC[C@H](NS(=O)(=O)c2ccc3[nH]c(-c4cccnc4)nc3c2)CC1)c1ccccc1 [Example 281, (1r,4R)-N-((R)-1-phenylethyl)-4-(2-(pyridin-3-yl)-1H-benzo[d]imidazole-5-sulfonamido)cyclohexanecarboxamide]
22 | 18 nM | C[C@@H](NC(=O)[C@H]1CC[C@H](NS(=O)(=O)c2ccc3cc(-c4ccccc4)[nH]c3c2)CC1)c1ccccc1 [Example 282, (1r,4R)-4-(2-phenyl-1H-indole-6-sulfonamido)-N-((R)-1-phenylethyl)cyclohexanecarboxamide]
